{"source": "patent US12702694B2", "about": "“Methods for identification, assessment, prevention, and treatment of metabolic disorders using SLIT2” (Dana-Farber Cancer Institute, Inc., priority 2015, dated 2026)", "molecules": {"B1": {"name": "Pm20D1: another FLAG-tagged protein secreted from thermogenic adipocytes, control for specific staining (protein)", "chain": "STGPRSRENRGASRIPSQFSEEERVAIKEALKGAIQIPTVSFSHEESNTTALAEFGEYIRKAFPTVFHSSLVQHEVVAKYSHLFTIQGSDPSLQPYMLMAHIDVVPAPEEGWEVPPFSGLERNGFIYGRGALDNKNSVMAILHALELLLIRNYSPKRSFFIALGHDEEVSGEKGAQKISALLQARGVQLAFLVDEGSFILEGFIPNLEKPVAMISVTEKGALDLMLQVNMTPGHSSAPPKETSIGILSAAVSRLEQTPMPNMFGGGPLKKTMKLLANEFSFPINIVLRNLWLFHPIVSRIMERNPITNALVRTTTALTMFNAGIKVNVIPPLAQATINCRIHPSQTVHEVLELVKNTVADDRVQLHVLRSFEPLPISPSDDQAMGYQLLQETIRSVFPEVDIVVPGICIANTDTRHYANITNGMYRFNPLPLNPQDFSGVHGINEKVSVQNYQNQVKFIFEFIQNADTYKEPVPHLHEL", "modifications": "left off: small tags and cut ends", "notes": "another FLAG-tagged protein secreted from thermogenic adipocytes, control for specific staining"}}, "key": {"Slit2": {"tested_on": "Slit2", "assay": "Slit2 mRNA in adipose tissue after daily CL 316,243 injections", "assay_type": "in vivo, Mus musculus", "settings": "3 days treatment, daily injections 1 mg/kg; did not reach statistical significance; FIG. 2F", "procedure": "(§1) RNA was extracted from cultured cells or frozen tissue samples using TRIzol®, purified with QIAGEN RNeasy® minicolumns. Normalized RNA was reversed transcribed using a high-capacity cDNA reverse transcription lot (Applied Biosystems) and cDNA was analyzed by qRT-CPR. Relative mRNA levels were calculated using the comparative CT method and normalized to cyclophilin miRNA. All primers used are listed with their sequences in Table 3 as follows: […]"}, "PKA signaling pathway [1]": {"tested_on": "PKA signaling pathway", "assay": "Western blotting of PKA and related signaling in primary inguinal cells", "assay_type": "cell-based, Mus musculus", "settings": "H89 30 μM, 2 h, primary inguinal cells; FIG. 10C", "procedure": "(§2) Inguinal and brown stromal-vascular fractions were obtained from 6 weeks old male or newborn mice (postnatal days 5-10) for white and brown fat cultures, respectively. Inguinal fat tissue was dissected and washed with PBS, minced and digested for 45 min at 37° C. in PBS containing 10 mM CaCl2), 2.4 U/ml dispase II (Roche) and 10 mg/ml collagenase D (Roche). Brown fat tissue was dissected, washed with PBS, minced and digested for 45 min at 37° C. in PBS containing 1.3 mM CaCl2, 123 mM NaCl, 5 mM KCl, 5.0 mM glucose, 100 mM HEPES, 4% BSA and 1.5 mg/ml collagenase B (Roche). Digested tissue was filtered through a 100-μm cell strainer and centrifuged at 600 g for 10 min. Pelleted inguinal stromal-vascular cells were grown to confluence and induced to differentiate by an adipogenic cocktail containing 0.02 μM insulin, 1 μM rosiglitazone, 5 μM dexamethasone, 0.5 μM isobuthylmethylxanthine. For differentiation of brown fat cells, 1 nM T3 and 125 μM indomethacin were also added to the adipogenic cocktail. Two days after induction, cells were maintained in adipocyte culture medium containing 0.02 μM insulin and 1 μM rosiglitazone. Where indicated, cells were treated with forskolin (10 μM), norepinephrine (100 nM) for 4 h or with recombinant proteins (1 μg/ml, R&D systems) for 24 h or for the indicated times. For adenoviral overexpression of Slit2-FL, Slit2-N, Slit2-C, LacZ or Cre, virus was added at day 2 of differentiation at a titer of 10^8 particles/well and cells were analyzed at day 6-7. Where indicated, cells were treated with the drugs Erlotinib (SelleckChem), Lapatinib (Santa Cruz), PD0325901 (Santa Cruz), Propranolol (SelleckChem), H89 dihydrochloride (Santa Cruz), SQ-22536 (Santa Cruz) for indicated time points and concentrations.\nFor Western blotting, homogenized tissues, whole cell lysates, or concentrated serum free conditioned medium were lysed in RIPA buffer containing protease inhibitor cocktail (Thermo Scientific) and phosphatase inhibitor cocktail (Thermo Scientific), separated by SDS-PAGE and transferred to Immobilon-P® membranes (Millipore). For Western blotting of plasma samples, 1 μl of plasma was prepared containing 2× sample buffer (Invitrogen) with reducing agent, boiled and analyzed using Western blot against V5, FLAG, or the indicated antibody. V5-antibody was from Life Technologies and anti-Flag M2-HRP (A8592) from Sigma Aldrich. Anti-Slit2 antibody used was from Abcam (Abcam ab134166). Phospho-PKA Substrate, phospho-PKC Substrate, phospho-ERK1/2, total ERK, phospho-AKT, total AKT, phospho-AMPK, total AMPK, phospho-ATGL, ATGL, phospho-EGFR and EGFR were from Cell Signaling. Protein array was from R&D Systems (Proteome Profiler Mouse Phospho-RTK Array Kit, ARY014). Silverstain (SilverQuest™ Silver Staining Kit, LC6070) was purchased from Thermo Fisher."}, "primary inguinal cells": {"tested_on": "primary inguinal cells", "assay": "Thermogenic gene expression in Slit2-C transduced primary inguinal cells co-treated with inhibitors", "assay_type": "cell-based, Mus musculus", "procedure": "as §2, with “Where indicated, cells were treated with the drugs Erlotinib (SelleckChem), Lapatinib (Santa Cruz), PD0325901 (Santa Cruz), Propranolol (SelleckChem), H89 dihydrochloride (Santa Cruz), SQ-22536 (Santa Cruz) for indicated time points and concentrations.” left out\nas §1, with “[…].” for “miRNA. All primers used are listed with their sequences in Table 3 as follows:”"}, "PKA signaling pathway [2]": {"tested_on": "PKA signaling pathway", "assay": "Western blotting of PKA and related signaling in primary inguinal cells", "assay_type": "cell-based, Mus musculus", "settings": "20 nM NE; FIG. 10M"}, "brown fat": {"tested_on": "brown fat", "settings": "humans; Cypess et al. (2015); cited from earlier work"}, "[3]": {"tested_on": "cell surface of primary inguinal adipocytes", "assay": "Cell surface binding by confocal laser scanning microscopy", "design": "species or system Mus musculus", "settings": "purified FLAG-tagged protein, live adipocytes incubated at 4° C.; FIGS. 10L, 11E", "procedure": "Live, primary differentiated adipocytes were incubated with recombinant Slit2-C FLAG-tagged protein for 1 h at 4° C. before fixation and staining with a fluorescent antibody for visualization of cell-surface bound proteins using a confocal laser scanning microscope.\nExperiments were performed using a Nikon Ti w/A1R confocal inverted microscope equipped with a Nikon Plan Apo 60x/NA 1.4 oil immersion objective lens using excitation wavelengths of 405 and 561 nm. All experiments were performed under confocal imaging conditions (pinhole <1 airy unit) and images taken with the same laser settings. Image analysis was performed using the Nikon Elements acquisition software. Primary inguinal cells differentiated until day 5 was gently trypsinized and seeded onto poly-D-lysine-coated coverslips (Corning Biocoat 12 mm German Glass coverslips, #08-774-385) in a 6-well plate at a density of 10,000 cells per well in growth medium. On the next day, cell surface binding was performed by adding 1 μg/ml purified protein to cells or FLAG peptide in PBS in serum-containing medium for 1 h at 4° C. on ice. Cells were washed three times in PBS, fixed in 4% paraformaldehyde for 10 min at 4° C., and washed with PBS three times before blocking with 5% BSA in PBS for 1 h at room temperature. Cells treated with protein or FLAG peptide alone were stained using 1:200 anti-Flag M2-HRP overnight at 4° C. […]"}}}
{"molecule": "C[C@H](Cc1ccc2c(c1)OC(C(=O)[O-])(C(=O)[O-])O2)NC[C@H](O)c1cccc(Cl)c1.[Na+].[Na+]", "note": "[CL316, 243]", "values": [{"measurement": "Slit2 gene expression in iWAT", "setting": "Slit2", "result": "trend to an increase"}]}
{"molecule": "Cl.Cl.O=S(=O)(NCCNC/C=C/c1ccc(Br)cc1)c1cccc2cnccc12", "note": "[H89, H89 dihydrochloride]", "values": [{"measurement": "phosphorylation of PKA substrates", "setting": "PKA signaling pathway [1]", "result": "significantly reduced"}, {"measurement": "Dio2 mRNA in cells receiving Slit2-C", "setting": "primary inguinal cells; H89 30 μM, FIG. 10D", "result": "down to baseline levels"}, {"measurement": "reduction of Ucp1 mRNA in cells receiving Slit2-C", "setting": "primary inguinal cells; H89 30 μM, FIG. 10D", "result": 50, "unit": "%"}]}
{"molecule": "NC[C@H](O)c1ccc(O)c(O)c1", "note": "[NE, norepinephrine]", "values": [{"measurement": "time of treatment to full PKA phosphorylation response", "setting": "PKA signaling pathway [2]", "result": "≤ 5", "unit": "min"}]}
{"molecule": "CC(C)NCC(O)COc1cccc2ccccc12", "note": "(stereo not drawn) [Propranolol]", "values": [{"measurement": "inhibition of Slit2-C induced thermogenesis", "setting": "primary inguinal cells; propranolol 100 nM for 24 h, FIG. 10H", "result": "did not inhibit"}]}
{"molecule": "Nc1nc(CC(=O)Nc2ccc(CCNC[C@H](O)c3ccccc3)cc2)cs1", "note": "[mirabegron]", "values": [{"measurement": "brown fat activation", "setting": "brown fat", "result": "apparent activation of brown fat"}, {"measurement": "resting metabolic rate", "setting": "brown fat", "result": "increased resting metabolic rate"}]}
{"molecule": "B1", "values": [{"measurement": "binding to the cell surface of adipocytes", "setting": "[3]", "result": "very limited binding"}]}
